From US11453632B2, “1-phenyl-2-phenylethane derivative” (KAO CORPORATION, priority 2018, dated 2022)

Key:
ERβ LBD = biological target: T1, ERβ LBD (Homo sapiens, UniProt Q92731); experiment: Ability to bind to ERβ: pBIND-ERβ LBD / GAL4 luciferase reporter in HEK293 cells; assay type: cell-based; set-up: key: RLU = firefly luminescence / Renilla luminescence; conditions: negative control 0.0118997
T1 construct: host or cells: HEK293
Experimental: This evaluation system is a system exploiting difference in the sequence of the ligand binding domain (LBD) between ERα and ERβ (J Endocrinol 163: 379-383 (1999)), and enables selective activation of ERβ to be evaluated by determining the binding of a ligand to LBD and the activation of ER.
(§1) A human kidney-derived cell line HEK293 was cultured (37° C., 5% CO2) in Dulbecco's modified Eagle medium (hereinafter, abbreviated to DMEM) containing 10% (v/v) fetal bovine serum (FBS) and penicillin/streptomycin.
(§2) 2) Measurement of Binding Activity Against ERs
(§3) This measurement was carried out according to the method described in JP-B-5990058. Specifically, HEK293 cells were inoculated at a cell density of 4.0×10^4 cells/well to a 96-well plate. After 12 hours therefrom, the medium was replaced with a culture solution (DMEM containing 5% (v/v) charcoal-treated serum). The cells were cotransfected with pBIND-ERα for the expression of ERα LBD or pBIND-ERβ for the expression of ERβ LBD (Promega Corp.) and pGL4.35[luc2P/9XGAL4UAS/Hygro](Promega Corp.) using Lipofectamine 2000 (Invitrogen Corp.) according to the protocol attached to the product. 24 hours after transfection, the medium was replaced with a culture solution containing a test sample, followed by culture for another 24 hours. The activity measurement of firefly luciferase (index for the ligand binding activity of ER) and Renilla reniformis luciferase (index for the transfection efficiency of the plasmids) was carried out using Dual-Glo™ Luciferase Assay System (Promega Corp.) according to the attached protocol. The luminescence intensity of the firefly luciferase was divided by the luminescence intensity of the Renilla reniformis luciferase to calculate a relative light unit (RLU).

ERα LBD = biological target: T2, ERα LBD (Homo sapiens, UniProt P03372); experiment: Ability to bind to ERα: pBIND-ERα LBD / GAL4 luciferase reporter in HEK293 cells; assay type: cell-based; set-up: key: firefly luciferase / Renilla luciferase luminescence ratio; conditions: negative control 0.00847035
T2 construct: host or cells: HEK293
T2 sequence (P03372 311-547 limits assumed): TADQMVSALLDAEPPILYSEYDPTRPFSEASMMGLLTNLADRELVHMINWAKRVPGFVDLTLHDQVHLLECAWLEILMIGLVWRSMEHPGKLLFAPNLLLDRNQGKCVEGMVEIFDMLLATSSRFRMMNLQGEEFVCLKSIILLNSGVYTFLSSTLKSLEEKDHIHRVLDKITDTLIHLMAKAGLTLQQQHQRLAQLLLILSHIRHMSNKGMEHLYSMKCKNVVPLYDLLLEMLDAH
Experimental: as §1, §2
as §3, with “Specifically,” for “This measurement was carried out according to the method described in JP-B-5990058. Specifically,”

T1 sequence (Q92731 264-498 limits assumed): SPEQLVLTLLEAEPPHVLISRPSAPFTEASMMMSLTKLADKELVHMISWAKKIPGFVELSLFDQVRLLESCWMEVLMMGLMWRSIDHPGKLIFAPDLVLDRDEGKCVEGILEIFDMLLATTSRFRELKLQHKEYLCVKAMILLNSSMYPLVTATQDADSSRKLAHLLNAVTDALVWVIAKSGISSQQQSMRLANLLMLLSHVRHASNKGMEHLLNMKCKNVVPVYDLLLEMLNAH

| SMILES | relative light unit (RLU), ligand binding activity ERβ (ERβ LBD; 1 nM) | relative light unit (RLU), ligand binding activity ERβ (ERβ LBD; 10 nM) | relative light unit (RLU), ligand binding activity ERβ (ERβ LBD; 100 nM) | relative light unit (RLU), ligand binding activity ERα (ERα LBD; 1 nM) | relative light unit (RLU), ligand binding activity ERα (ERα LBD; 10 nM) | relative light unit (RLU), ligand binding activity ERα (ERα LBD; 100 nM) | relative light unit (RLU), ligand binding activity ERβ (ERβ LBD; 0.01 nM) | relative light unit (RLU), ligand binding activity ERβ (ERβ LBD; 0.1 nM) | relative light unit (RLU), ligand binding activity ERα (ERα LBD; 0.01 nM) | relative light unit (RLU), ligand binding activity ERα (ERα LBD; 0.1 nM) |
| --- | --- | --- | --- | --- | --- | --- | --- | --- | --- | --- |
| Oc1ccc(CC(c2ccc(O)cc2)C2CC2)cc1 (centres unmarked) [Compound 1, 4,4′-(1-cyclopropylethane-1,2-diyl)diphenol] | 0.04726 | 0.7801 | 0.674 | 0.01123 | 0.01001 | 0.03514 |  |  |  |  |
| CC=CC(Cc1ccc(O)cc1)c1ccc(O)cc1 (centres unmarked) [Compound 5, 4,4′-(pent-3-ene-1,2-diyl)diphenol] | 0.9744 | 1.153 | 1.216 | 0.006803 | 0.008307 | 0.319 | 0.01699 | 0.1395 |  |  |
| CCC(C)C(Cc1ccc(O)cc1)c1ccc(O)cc1 (centres unmarked) [Compound 6, 4,4′-(3-methylpentane-1,2-diyl)diphenol] | 0.01046 | 0.02031 | 0.2041 | 0.008097 | 0.01098 | 0.01183 |  |  |  |  |
| Oc1ccc(CC(C=CF)c2ccc(O)cc2)cc1 (centres unmarked) [Compound 8, 4,4′-(4-fluorobut-3-ene-1,2-diyl)diphenol] | 0.9979 | 1.068 | 1.031 | 0.007223 | 0.1184 | 0.423 | 0.01223 | 0.5254 | 0.005812 | 0.005926 |
| O=C(NC(Cc1ccc(O)cc1)c1ccc(O)cc1)C(F)(F)F (centres unmarked) [Compound 10, N-(1,2-bis(4-hydroxyphenyl)ethyl)-2,2,2-trifluoroacetamide] | 0.01539 | 0.0134 | 0.2211 | 0.008272 | 0.0163 | 0.01156 |  |  |  |  |
| Oc1ccc(CC(c2ccc(O)cc2)c2ccn[nH]2)cc1 (centres unmarked) [Compound 12, 4,4′-(1-(1H-pyrazol-5-yl)ethane-1,2-diyl)diphenol] | 0.03073 | 0.02066 | 0.026 | 0.01753 | 0.01191 | 0.008685 | 0.01836 | 0.01732 | 0.006803 | 0.02077 |
| Oc1ccc(CC(c2ccc(O)cc2)c2cnco2)cc1 (centres unmarked) [Compound 13, 4,4′-(1-(oxazol-5-yl)ethane-1,2-diyl)diphenol] | 0.02471 | 0.04313 | 0.8322 | 0.01285 | 0.01611 | 0.01431 | 0.01293 | 0.01887 | 0.01362 | 0.006796 |
| Oc1ccc(CC(c2ccc(O)cc2)c2ncon2)cc1 (centres unmarked) [Compound 14, 4,4′-(1-(1,2,4-oxadiazol-3-yl)ethane-1,2-diyl)diphenol] | 0.02069 | 0.08851 | 0.9946 | 0.02004 | 0.01493 | 0.02047 | 0.02708 | 0.02188 | 0.01031 | 0.01495 |
| Oc1ccc(CC(c2ccc(O)cc2)c2cocn2)cc1 (centres unmarked) [Compound 16, 4,4′-(1-(oxazol-4-yl)ethane-1,2-diyl)diphenol] | 0.01759 | 0.06729 | 0.8625 | 0.01714 | 0.0182 | 0.0245 | 0.0173 | 0.02216 | 0.01424 | 0.01773 |
| Oc1ccc(CC(C=C(Cl)Cl)c2ccc(O)cc2F)c(F)c1 (centres unmarked) [Compound 17-Cl, 4,4′-(4,4-dichlorobut-3-ene-1,2-diyl)bis(3-fluorophenol)] | 1.22 | 1.682 | 2.029 | 0.05395 | 0.92 | 2.707 | 0.04108 | 0.116 | 0.03467 | 0.03125 |
